Values joined by “and” are separate entries in the source; they are usually repeats but may differ in a detail not shown here. Equal entries are not always repeated.
Legend:
aerobic total count = test: Preservative action in bratwurst sausage, aerobic total count; assay type: cell-based; conditions: Example 11, bratwurst sausage, LAE 0.2 g/kg
Protocol: (3) Determination of Preservative Action in Bratwurst Sausage.
The ingredients for all samples were : minced pork back, underbelly, spices, salt and additives (milk protein, diphosphate, antioxidant (E-300) and flavour enhance (E-621)).
1. On the cutter the minced pork back meat was ground and the ingredients were added in this order: the additives (except the preservative system), the underbelly, the spices and the preservative system (such as the cationic surfactant alone or in combination with other products). Ice was also added for controlling the temperature (maximum 5° C.) of the meat. The mixing time was 12 minutes.
2. The mass was vacuum mixed (92%) for 1 minute.
3. The mixture was stuffed into natural casings. The casings were previously soaked in a salted water solution for 30 minutes.
4. The bratwurst sausages were put in a cooking trolley. Cooking took place in a oven at 80° C. for 1 hour.
5. After cooking, the bratwurst sausages were sprayed with cool water for 5 minutes and put in a cold-storage room (0-5° C., 24 hours).
6. The next day, bratwurst sausages were packed (each packed contained five sausages) and pasteurised at 80° C. for 30 minutes and then. After, they were soaked in cool water for 30 minutes.
7. Finally, the bratwurst sausages were labelled and stored at 5° C. for 90 days.
Samples were analysed (aerobic total count) for up to 90 days. Aerobic total count was analysed by stomaching 25 g of sausage in 225 g of buffered peptone water. Dilutions were made in buffered peptone water. Tryptone Soya Agar was harvested with each dilution and incubated at 35° C. for 48 hours.
Average values in log cfu/g of three samples per treatment and day of analysis were calculated.

[1] = Concentration of LAE in soaked chickpeas (HPLC); assay type: physicochemical; conditions: Example 13, soaked chickpeas; for Concentration of LAE (HPLC method) expressed as % of initial dose, mean / Concentration of LAE (HPLC method) expressed as % of initial dose: LAE 0.2 g/kg in soaking water; for Concentration of LAE (HPLC method) expressed as % of initial dose, mean: mean of triplicate; for Concentration of LAE (HPLC method) expressed as % of initial dose: samples 1-3, monohydrochloride
Protocol: (4) Determination of Preservative Action in Soaked Chick-peas.
Chickpeas are the principal ingredients in a lot of ready-to-eat meals. Before cooking them, chickpeas have to be soaked in water at room temperature for 24 hours. During this period, fermentation processes may occur and therefore, chickpeas would not be suitable for eating. The soaking process cannot be made at refrigeration temperatures, because the structure of the chickpeas could be damaged.
• 1. Chickpeas were soaked in water for 24 hours at 30° C. and 50% HR (in treated samples preservative was added at this point); and • 2. after 24 hours the chickpeas were strained. Analysis • Samples were analysed (aerobic total count and concentration of the cationic surfactant) by triplicate for 24 hours. • Aerobic total count was analysed by stomaching 25 g of chickpeas in 225 g of buffered peptone water. Dilutions were made in buffered peptone water. Tryptone Soya Agar was harvested with each dilution and incubated at 35° C. for 48 hours. • Average values in log cfu/g of three samples per treatment and day of analysis were calculated. • LAE was analysed by HPLC using an internally validated method.

Moulds = test: Preservative action in cosmetic products (Antimicrobial Effectiveness Testing USP 24th Edition), moulds; assay type: cell-based, Aspergillus niger
Text: (§1) (1) Determination of Preservative Action in Cosmetic Products. […] This assay consists of the contamination of the protecting formulations with an inoculum mixture of 10^8 cfu/ml concentration, for each of the micro-organisms, and the determination of the number of viable cells in time. This inoculum mixture is composed of the following microorganisms: [table] The cosmetic composition to be analysed is divided into sterile containers with 50 g of product for each flask. Each container is inoculated with 0.5 ml of inoculum (10^8 cfu/ml). The target concentration is 10^6 cfu/ml, approximately. All the containers are kept at a temperature between 20-25° C. and are protected from light. The level of the microbial contamination is checked at 0 hours, 7 days, 14 days and 28 days. The number of colonies is evaluated by dilution in buffer peptone with the appropriate neutraliser agent of the preservative. The culture media used for counting the microorganisms are: […] (2) Determination of Preservative Action in Chicken Breast. Process of Preparation • 1. Fresh chicken breast was diced to pieces • 2. Brine (8.70% sodium chloride and 4.35% tripolyphosphate in water) was added to the fresh chicken in an amount of 11.5 g brine per 88.5 g meat in the control preparation and 11.5 g brine and 88.4 g meat in the preparations treated with preservative. • 3. Brine and meat were mixed during 15 minutes, in the preparations treated with preservative the preservative was added after 14 minutes in an amount of 0.2 g/kg. • 4. Vacuum refrigerate tumbling was made during 30 minutes. • 5. Samples were vacuum-packed in sterile bags and they were cooked at 85° C. for 30 minutes. • 6. The cooked chicken was refrigerated at 4° C. • 7. The cooked chicken was diced in irregular shapes. • 8. Then, the nuggets were stored at 10° C. in sterile vacuum-packed bags. Analysis

Yeast = test: Preservative action in cosmetic products (Antimicrobial Effectiveness Testing USP 24th Edition), yeast; assay type: cell-based, Candida albicans
Text: as §1

[2] = tested on: inoculated microorganisms; test: Preservative action in cosmetic products, overall outcome against the inoculum mixture; assay type: cell-based; conditions: Example 17, oil in water emulsion with an ionic emulsifier, 0.20 g of LAE/kg
Text: as §1, with “Brine and meat were mixed during 15 minutes, in the preparations treated with preservative the preservative was added after 14 minutes in an amount of 0.2 g/kg. • 4. Vacuum refrigerate tumbling was made during 30 minutes. • 5. Samples were vacuum-packed in sterile bags and they were cooked at 85° C. for 30 minutes. • 6. The cooked chicken was refrigerated at 4° C. • 7. The cooked chicken was diced in irregular shapes. • 8. Then, the nuggets were stored at 10° C. in sterile vacuum-packed bags. Analysis” left out

[3] = Example 10, oil in water emulsion with non-ionic surfactant, 0.2 g/kg, 0 days
[4] = Example 10, oil in water emulsion with non-ionic surfactant, 0.2 g/kg, 7 days
[5] = Example 10, oil in water emulsion with non-ionic surfactant, 0.2 g/kg, 14 days
[6] = Example 12, bath gel, LAE 0.2 g/kg, 0 days
[7] = Example 12, bath gel, LAE 0.2 g/kg, 7 days
[8] = Example 12, bath gel, LAE 0.2 g/kg, 14 days
[9] = Example 15, bath gel, LAE 0.2 g/kg, 0 days
[10] = Example 15, bath gel, LAE 0.2 g/kg, 7 days
[11] = Example 15, bath gel, LAE 0.2 g/kg, 14 days
[12] = Example 17, oil in water emulsion with an ionic emulsifier, 0.20 g of LAE/kg, 0 days
[13] = Example 17, oil in water emulsion with an ionic emulsifier, 0.20 g of LAE/kg, 7 days
[14] = Example 17, oil in water emulsion with an ionic emulsifier, 0.20 g of LAE/kg, 14 days
[15] = Example 19, bath gel, 0.2 g of LAE/kg, 0 days
[16] = Example 19, bath gel, 0.2 g of LAE/kg, 7 days
[17] = Example 19, bath gel, 0.2 g of LAE/kg, 14 days

For `CCCCCCCCCCCC(=O)N[C@@H](CCCN=C(N)N)C(=O)OCC.Cl` [LAE, ethyl ester of the lauramide of the arginine monohydrochloride], the “aerobic total count, mean” value (aerobic total count; day 0, mean of three samples) was 2.0 log cfu/g, the “aerobic total count, mean” value (aerobic total count; day 15, mean of three samples) was 2.0 log cfu/g and the “aerobic total count, mean” value (aerobic total count; day 30, mean of three samples) was 2.4 log cfu/g. The “aerobic total count, mean” value (aerobic total count; day 45, mean of three samples) was 2.8 log cfu/g, the “aerobic total count, mean” value (aerobic total count; day 60, mean of three samples) was 3.4 log cfu/g and the “aerobic total count, mean” value (aerobic total count; day 90, mean of three samples) was 4.2 log cfu/g. For the same compound, the “Concentration of LAE (HPLC method) expressed as % of initial dose, mean” value (from here on “Concentration … as % of initial dose, mean”) ([1]; 0 hours) was 100 % of initial dose, the “Concentration of LAE (HPLC method) expressed as % of initial dose” value ([1]; 0 hours) was 100 % of initial dose and 101 % of initial dose and the “Concentration … as % of initial dose, mean” value ([1]; 4 hours) was 100 % of initial dose. The “Concentration of LAE (HPLC method) expressed as % of initial dose” value ([1]; 4 hours) was 101 % of initial dose and 99 % of initial dose and 100 % of initial dose, the “Concentration … as % of initial dose, mean” value ([1]; 8 hours) was 98 % of initial dose and the “Concentration of LAE (HPLC method) expressed as % of initial dose” value ([1]; 8 hours) was 97 % of initial dose and 98 % of initial dose and 99 % of initial dose. The “Concentration … as % of initial dose, mean” value ([1]; 16 hours) was 95 % of initial dose, the “Concentration of LAE (HPLC method) expressed as % of initial dose” value ([1]; 16 hours) was 95 % of initial dose and 96 % of initial dose and the “Concentration … as % of initial dose, mean” value ([1]; 24 hours) was 93 % of initial dose. For the same compound, the “Concentration of LAE (HPLC method) expressed as % of initial dose” value ([1]; 24 hours) was 93 % of initial dose and 92 % of initial dose and 94 % of initial dose, the “hydrolysis of LAE” value ([1]; after 24 hours) was ~10 % of the original dose and the Moulds count (Moulds; [3]) was 4.3 log cfu/g. The Moulds count (Moulds; [4]) was under 2.0 log cfu/g, the Moulds count (Moulds; [5]) was under 2.0 log cfu/g and the Moulds count (Moulds; [6]) was 4.5 log cfu/g. For the same compound, the Moulds count (Moulds; [7]) was 2.3 log cfu/g, the Moulds count (Moulds; [8]) was under 2.0 log cfu/g and the Moulds count (Moulds; [9]) was 4.1 log cfu/g. It also gave a Moulds count (Moulds; [10]) of under 2.0 log cfu/g, a Moulds count (Moulds; [11]) of under 2.0 log cfu/g and a Moulds count (Moulds; [12]) of 4.1 log cfu/g. It also gave a Moulds count (Moulds; [13]) of 2.9 log cfu/g, a Moulds count (Moulds; [14]) of under 2.0 log cfu/g and a Moulds count (Moulds; [15]) of 4.1 log cfu/g. For the same compound, the Moulds count (Moulds; [16]) was 2.0 log cfu/g, the Moulds count (Moulds; [17]) was under 2.0 log cfu/g and the Yeast count (Yeast; [3]) was 5.6 log cfu/g. It also gave a Yeast count (Yeast; [4]) of 3.4 log cfu/g, a Yeast count (Yeast; [5]) of 2.6 log cfu/g and a Yeast count (Yeast; [6]) of 4.3 log cfu/g. The Yeast count (Yeast; [7]) was 2.8 log cfu/g, the Yeast count (Yeast; [8]) was under 2.0 log cfu/g and the Yeast count (Yeast; [9]) was 4.3 log cfu/g. It also gave a Yeast count (Yeast; [10]) of 3.3 log cfu/g, a Yeast count (Yeast; [11]) of 2.6 log cfu/g and a Yeast count (Yeast; [12]) of 5.3 log cfu/g. It also gave a Yeast count (Yeast; [13]) of 3.8 log cfu/g, a Yeast count (Yeast; [14]) of 2.5 log cfu/g and a Yeast count (Yeast; [15]) of 4.5 log cfu/g. The Yeast count (Yeast; [16]) was 3.5 log cfu/g, the Yeast count (Yeast; [17]) was 2.3 log cfu/g and the preservation outcome [2] was “effectively preserved”.

From US10130830B2, “Preservative systems comprising cationic surfactants” (Laboratorios Miret, S.A., priority 2005, dated 2018)
